Reference: ChEMBL document CHEMBL5034015, “Structure-Based Optimization of 3-Phenyl-N-(2-(3-phenylureido)ethyl)thiophene-2-sulfonamide Derivatives as Selective Mcl-1 Inhibitors” (J Med Chem, 2021)
Active and inactive are the calls of the source. Unless noted, the rule behind the calls is not given here.

Columns and labels:
[1] = test system: RS4-11; assay: Induction of apoptosis in human RS4-11 cells assessed as increase in cleaved caspase 3 expression incubated for 48 hrs by western blot analysis; format: functional, cell-based
[2] = test system: RS4-11; assay: Induction of apoptosis in human RS4-11 cells assessed as increase in cleaved caspase 9 expression incubated for 48 hrs by western blot analysis; format: functional, cell-based
[3] = test system: RS4-11; assay: Induction of apoptosis in human RS4-11 cells assessed as increase in cleaved PARP expression incubated for 48 hrs by western blot analysis; format: functional, cell-based
[4] = target: T1, Induced myeloid leukemia cell differentiation protein Mcl-1 (Homo sapiens, UniProt Q07820); assay: Binding affinity to full length human MCL1 expressed in Escherichia coli BL21 (DE3) at up to 100 uM preincubated for 30 mins followed by 5-FAM-QEDIIIINIARHLAQVGDSMD-RSIPPG tracer addition and measured after 20 mins by fluorescence polarization assay; conditions: dose microM <=100, time 50.0 min
[5] = test system: RS4-11; assay: Induction of apoptosis in human RS4-11 cells assessed as late apoptotic cells at 1 uM measured after 24 hrs by Annexin V/7-AAD and MitoSense Red staining based flow cytometry analysis relative to control (reference value: 0.99 %); format: functional
[6] = test system: RS4-11; assay: Induction of apoptosis in human RS4-11 cells assessed as viable cells at 1 uM measured after 24 hrs by Annexin V/7-AAD and MitoSense Red staining based flow cytometry analysis relative to control (reference value: 94.15 %); format: functional; conditions: read-out: Activity
[7] = test system: RS4-11; assay: Induction of apoptosis in human RS4-11 cells assessed as necrotic cells at 1 uM measured after 24 hrs by Annexin V/7-AAD and MitoSense Red staining based flow cytometry analysis relative to control (reference value: 1.11 %); format: functional
[8] = test system: RS4-11; assay: Induction of apoptosis in human RS4-11 cells assessed as early apoptotic cells at 1 uM measured after 24 hrs by Annexin V/7-AAD and MitoSense Red staining based flow cytometry analysis relative to control (reference value: 3.75 %); format: functional
[9] = target: T1, Induced myeloid leukemia cell differentiation protein Mcl-1; assay: Binding affinity to full length human MCL1 expressed in Escherichia coli BL21 (DE3) at 100 uM preincubated for 30 mins followed by 5-FAM-QEDIIIINIARHLAQVGDSMD-RSIPPG tracer addition and measured after 20 mins by fluorescence polarization assay relative to control; conditions: time 50.0 min
[10] = target: T2, Apoptosis regulator Bcl-2 (Homo sapiens, UniProt P10415); assay: Binding affinity to full length human Bcl-2 expressed in Escherichia coli BL21 (DE3) at 100 uM preincubated for 30 mins followed by 5-FAM-QEDIIIINIARHLAQVGDSMD-RSIPPG tracer addition and measured after 20 mins by fluorescence polarization assay relative to control; conditions: time 50.0 min
[11] = test system: HEK-293T; assay: Cytotoxicity against HEK293T cells assessed as reduction in cell viability incubated for 48 hrs by CCK8 assay; conditions: Homo sapiens
[12] = test system: RS4-11; assay: cells; conditions: Homo sapiens, RS4-11, 48 h
Description: Cytotoxicity against human RS4-11 cells assessed as inhibition of cell growth incubated for 48 hrs by CCK8 assay

[13] = target: Induced myeloid leukemia cell differentiation protein Mcl-1/Bcl-2-like protein 11 (Homo sapiens) (UniProt Q07820+O43521); assay: Inhibition of MCL1/Bim interaction in human MCF7 cells assessed as disruption of MCL1/Bim complex at 10 uM measured after 24 hrs by co-immunoprecipitation based western blot analysis relative to control; format: cell-based
[14] = test system: HL-60; assay: cells; conditions: Homo sapiens, HL-60, 48 h
Description: Cytotoxicity against human HL-60 cells assessed as inhibition of cell growth incubated for 48 hrs by CCK8 assay

[15] = test system: HeLa; assay: cells; conditions: Homo sapiens, 48 h
Description: Cytotoxicity against human HeLa cells assessed as inhibition of cell growth incubated for 48 hrs by CCK8 assay

[16] = target: T3, Bcl-2-like protein 1 (Homo sapiens, UniProt Q07817); assay: Binding affinity to full length human Bcl-xl expressed in Escherichia coli BL21 (DE3) at 100 uM preincubated for 30 mins followed by 5-FAM-QEDIIIINIARHLAQVGDSMD-RSIPPG tracer addition and measured after 20 mins by fluorescence polarization assay relative to control; conditions: time 50.0 min
[17] = Cytotoxicity against HEK293T cells assessed as cell viability at 20 uM incubated for 48 hrs by CCK8 assay relative to control; format: cell-based, HEK-293T; conditions: human, read-out: Activity
[18] = test system: HL-60; assay: Cytotoxicity against human HL-60 cells assessed as cell viability at 20 uM incubated for 48 hrs by CCK8 assay relative to control; format: functional; conditions: read-out: Activity
[19] = target: T2, Apoptosis regulator Bcl-2; assay: Binding affinity to full length human Bcl-2 expressed in Escherichia coli BL21 (DE3) at up to 100 uM preincubated for 30 mins followed by 5-FAM-QEDIIIINIARHLAQVGDSMD-RSIPPG tracer addition and measured after 20 mins by fluorescence polarization assay; conditions: dose microM <=100, time 50.0 min
[20] = target: T3, Bcl-2-like protein 1; assay: Binding affinity to full length human Bcl-xl expressed in Escherichia coli BL21 (DE3) at up to 100 uM preincubated for 30 mins followed by 5-FAM-QEDIIIINIARHLAQVGDSMD-RSIPPG tracer addition and measured after 20 mins by fluorescence polarization assay; conditions: dose microM <=100, time 50.0 min
[21] = target: T1, Induced myeloid leukemia cell differentiation protein Mcl-1; assay: Binding affinity to full length human MCL1 expressed in Escherichia coli BL21 (DE3) assessed as inhibition constant preincubated for 30 mins followed by 5-FAM-QEDIIIINIARHLAQVGDSMD-RSIPPG tracer addition and measured after 20 mins by fluorescence polarization assay
[22] = test system: RS4-11; assay: Induction of apoptosis in human RS4-11 cells assessed as early apoptotic cells at 20 uM measured after 24 hrs by Annexin V/7-AAD and MitoSense Red staining based flow cytometry analysis relative to control (reference value: 3.75 %); format: functional
[23] = target: T1, Induced myeloid leukemia cell differentiation protein Mcl-1; assay: Binding affinity to 15N-labeled human MCL1 (172 to 327 residues) expressed in Escherichia coli BL21 (DE3) assessed as chemical shift at R263 residue at 0.3 mM incubated for 1 hr by 15N HSQC NMR spectroscopy analysis
[24] = target: T1, Induced myeloid leukemia cell differentiation protein Mcl-1; assay: Binding affinity to 15N-labeled human MCL1 (172 to 327 residues) expressed in Escherichia coli BL21 (DE3) assessed as chemical shift at F228 residue at 0.3 mM incubated for 1 hr by 15N HSQC NMR spectroscopy analysis
[25] = target: T1, Induced myeloid leukemia cell differentiation protein Mcl-1; assay: Binding affinity to 15N-labeled human MCL1 (172 to 327 residues) expressed in Escherichia coli BL21 (DE3) assessed as chemical shift at M231 residue at 0.3 mM incubated for 1 hr by 15N HSQC NMR spectroscopy analysis
[26] = test system: RS4-11; assay: Induction of apoptosis in human RS4-11 cells assessed as viable cells at 20 uM measured after 24 hrs by Annexin V/7-AAD and MitoSense Red staining based flow cytometry analysis relative to control (reference value: 94.15 %); format: functional; conditions: read-out: Activity
[27] = target: T1, Induced myeloid leukemia cell differentiation protein Mcl-1; assay: Binding affinity to 15N-labeled human MCL1 (172 to 327 residues) expressed in Escherichia coli BL21 (DE3) assessed as chemical shift at M250 residue at 0.3 mM incubated for 1 hr by 15N HSQC NMR spectroscopy analysis
[28] = test system: MCF7; assay: Inhibition of Bcl-2/Bim interaction in human MCF7 cells assessed as disruption of Bcl-2/Bim complex at 10 uM measured after 24 hrs by co-immunoprecipitation based western blot analysis relative to control; format: cell-based
[29] = target: T1, Induced myeloid leukemia cell differentiation protein Mcl-1; assay: Binding affinity to 15N-labeled human MCL1 (172 to 327 residues) expressed in Escherichia coli BL21 (DE3) assessed as chemical shift at L235 residue at 0.3 mM incubated for 1 hr by 15N HSQC NMR spectroscopy analysis
[30] = test system: RS4-11; assay: Induction of apoptosis in human RS4-11 cells assessed as late apoptotic cells at 20 uM measured after 24 hrs by Annexin V/7-AAD and MitoSense Red staining based flow cytometry analysis relative to control (reference value: 0.99 %); format: functional
[31] = target: T1, Induced myeloid leukemia cell differentiation protein Mcl-1; assay: Binding affinity to 15N-labeled human MCL1 (172 to 327 residues) expressed in Escherichia coli BL21 (DE3) assessed as chemical shift at H224 residue at 0.3 mM incubated for 1 hr by 15N HSQC NMR spectroscopy analysis
[32] = test system: RS4-11; assay: Induction of apoptosis in human RS4-11 cells assessed as necrotic cells at 20 uM measured after 24 hrs by Annexin V/7-AAD and MitoSense Red staining based flow cytometry analysis relative to control (reference value: 1.11 %); format: functional
[33] = test system: RS4-11; assay: Cytotoxicity against human RS4-11 cells assessed as cell viability at 20 uM incubated for 48 hrs by CCK8 assay relative to control; format: functional; conditions: read-out: Activity
[34] = test system: HeLa; assay: Cytotoxicity against human HeLa cells assessed as cell viability at 20 uM incubated for 48 hrs by CCK8 assay relative to control; format: functional; conditions: read-out: Activity

T2 sequence (P10415 whole entry): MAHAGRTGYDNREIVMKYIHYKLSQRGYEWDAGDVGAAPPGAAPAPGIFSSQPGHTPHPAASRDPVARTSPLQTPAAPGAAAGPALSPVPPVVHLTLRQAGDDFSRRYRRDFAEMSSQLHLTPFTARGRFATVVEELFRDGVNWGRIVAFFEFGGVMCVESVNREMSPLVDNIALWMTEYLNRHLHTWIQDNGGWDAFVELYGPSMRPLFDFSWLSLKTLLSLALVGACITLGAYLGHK
T1 sequence (Q07820 whole entry): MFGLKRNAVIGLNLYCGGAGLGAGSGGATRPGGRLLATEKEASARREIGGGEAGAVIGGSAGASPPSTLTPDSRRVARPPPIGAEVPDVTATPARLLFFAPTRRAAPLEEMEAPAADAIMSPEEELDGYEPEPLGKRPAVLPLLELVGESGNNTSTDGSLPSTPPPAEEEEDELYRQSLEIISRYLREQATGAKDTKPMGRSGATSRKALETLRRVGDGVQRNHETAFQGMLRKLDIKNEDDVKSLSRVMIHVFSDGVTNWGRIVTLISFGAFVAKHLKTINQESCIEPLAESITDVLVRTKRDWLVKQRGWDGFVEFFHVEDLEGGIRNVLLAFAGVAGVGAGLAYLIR
T3 sequence (Q07817 whole entry): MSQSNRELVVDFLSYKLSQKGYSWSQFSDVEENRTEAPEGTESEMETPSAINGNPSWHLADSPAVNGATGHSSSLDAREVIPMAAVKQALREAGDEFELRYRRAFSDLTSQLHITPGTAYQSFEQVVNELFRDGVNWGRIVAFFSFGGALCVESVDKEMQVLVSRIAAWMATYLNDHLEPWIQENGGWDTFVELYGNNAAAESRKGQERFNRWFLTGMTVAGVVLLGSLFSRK
Induced myeloid leukemia cell differentiation protein Mcl-1/Bcl-2-like protein 11 (Homo sapiens), sequence (O43521 whole entry, looked up): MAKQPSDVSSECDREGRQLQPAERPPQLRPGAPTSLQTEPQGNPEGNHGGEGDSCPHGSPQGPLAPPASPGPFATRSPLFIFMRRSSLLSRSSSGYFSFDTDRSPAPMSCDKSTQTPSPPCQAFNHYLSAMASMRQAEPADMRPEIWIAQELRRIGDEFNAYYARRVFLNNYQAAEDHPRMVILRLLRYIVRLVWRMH
Induced myeloid leukemia cell differentiation protein Mcl-1/Bcl-2-like protein 11 (Homo sapiens), sequence (Q07820 whole entry, looked up): as the sequence (Q07820 whole entry) above

Compound	inhibition [9]	inhibition [10]	IC50 [11]	IC50 [12]	IC50 [14]	IC50 [15]	inhibition [16]	viability at 20 µM [18]	Activity [19]	Activity [20]	other results
CC1(C)CCC(CN2CCN(c3ccc(C(=O)NS(=O)(=O)c4ccc(NCC5CCOCC5)c([N+](=O)[O-])c4)c(Oc4cnc5[nH]ccc5c4)c3)CC2)=C(c2ccc(Cl)cc2)C1 [VENETOCLAX]	–	–	–	–	–	–	–	–	–	–	Activity [1]: Dose-Dependent Effect; Activity [2]: Dose-Dependent Effect; Activity [3]: Dose-Dependent Effect; Activity [4]: inactive; Activity [5]: 88.54%; viability at 1 µM [6]: 0.45%; Activity [7]: 0.26%; Activity [8]: 10.75%
COc1ccc(Oc2ccc([N+](=O)[O-])cc2-c2ccsc2S(=O)(=O)N2CCN(C(=S)Nc3ccc(Cl)cc3)CC2)cc1OC	41%	18%	> 50 µM	> 50 µM	> 50 µM	> 50 µM	37%	–	–	–	inhibition [13]: 30%
COc1ccc(Oc2ccccc2-c2ccsc2S(=O)(=O)N2CCN(C(=S)Nc3cc(C(F)(F)F)cc(C(F)(F)F)c3)CC2)cc1OC	66%	25%	–	> 50 µM	–	> 50 µM	29%	38%	–	–	viability at 48 h, 20 µM [17]: 42%
CC(C)c1ccc(Oc2ccc(O)c(O)c2)c(-c2ccsc2S(=O)(=O)NCCNC(=O)Nc2cc(C(F)(F)F)cc(C(F)(F)F)c2)c1	–	–	> 20 µM	6.8 µM	–	> 50 µM	–	23%	inactive	inactive	Ki [21]: 0.36 µM
Cc1ccc(-c2ccsc2S(=O)(=O)NCCNC(=O)Nc2cc(C(F)(F)F)cc(C(F)(F)F)c2)c(Oc2ccc(O)c(O)c2)c1	–	–	> 20 µM	5.6 µM	3.7 µM	9.7 µM	–	–	inactive	inactive	Activity [22]: 12.98%; Activity [23]: Active; Activity [24]: Active; Activity [25]: Active; viability at 20 µM [26]: 8.79%; Activity [27]: Active; inhibition [13]: 70%; inhibition [28]: inactive; Activity [29]: Active; Activity [30]: 75.04%; Activity [31]: Active; Activity [32]: 3.19%
COc1ccc(Oc2ccccc2-c2ccsc2S(=O)(=O)NCCNC(=S)Nc2cc(C(F)(F)F)cc(C(F)(F)F)c2)cc1OC	–	–	6.8 µM	3.3 µM	2.8 µM	6.4 µM	–	–	inactive	inactive	Activity [1]: Dose-Dependent Effect; Activity [22]: 3.1%; Activity [2]: Dose-Dependent Effect; viability at 20 µM [26]: 2.6%; Activity [3]: Dose-Dependent Effect; inhibition [28]: 20%; Activity [30]: 93.97%; Activity [32]: 0.26%
O=C(Nc1cc(C(F)(F)F)cc(C(F)(F)F)c1)N1CCN(S(=O)(=O)c2sccc2-c2ccccc2Oc2ccc(O)c(O)c2)CC1	47%	7%	–	–	–	–	-8%	15%	–	–	viability at 20 µM [33]: 10%; viability at 20 µM [34]: 20%; viability at 48 h, 20 µM [17]: 29%
